In this assay the test system is GK (G protein coupled to the muscarinic K+ channel IK.ACh). As to the kind of experiment: inside-out patch clamp, inhibition of GTP-induced IK.ACh openings, Hill fit. It counts as biochemical, Cavia porcellus. The settings on record: no agonist; against 10 µM GTP; same; assumed competitive with GTP.

The structures appear in SMILES notation.

For `Nc1nc2c(ncn2[C@@H]2O[C@H](COP(=O)(O)OP(=O)(O)O)[C@@H](O)[C@H]2O)c(=O)[nH]1` [GDP], the IC50 amounted to 0.51 µM.

For the origin of these results see PMC2229062 (The Journal of General Physiology, 1991).
